Laboratory results reported in US9809602B2, “Compounds for treating viral infections” (INSTITUT PASTEUR KOREA, priority 2014, dated 2017).

Test system: genotype 1/2 chimeric cell culture derived HCV (HCVcc)
Experiment: Genotype 1/2 chimeric HCVcc assay (nano-luciferase, HCV replication)
Assay type: cell-based
How it was run: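 EC50 (replication, nano-luciferase) and CC50 (viability, cellular ATP) were determined by non-linear regression 72 h after infection with a reporter HCVcc chimera carrying genotype 1a structural and 2a JFH-1 non-structural proteins. Compound was applied to Huh-7.5 cells 2 h before inoculation.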

[1] = Hepatitis C virus, Huh7.5, 72 h

SMILES	EC50 [1] [nM]	EC50 (Anti-HCVcc genotype 1/2 activity, Huh-7.5 cells, 72 h post infection, nano-luciferase) [nM]
CC(C)(C)OC(=O)c1c(NC(=O)NCc2c(-c3ccc(F)cc3Cl)sc3c2CCNC3)sc2c1CCCC2 [Compound 286]	100 to 1000	–
CC(C)(C)OC(=O)c1c(NC(=O)NCc2c(-c3ccc(Cl)c(Cl)c3)sc3c2CCNC3)sc2c1CCCC2 [Compound 287]	100 to 1000	–
CCc1sc2c(c1CNC(=O)Nc1sc(C)c(C)c1C(=O)OC(C)(C)C)CCNC2 [Compound 288]	< 100	–
CCc1sc2c(c1CNC(=O)Nc1sc3c(c1C(=O)OC(C)(C)C)CCC(C)C3)CCNC2 (centres unmarked) [Compound 289]	< 100	–
CC1CCCc2sc(NC(=O)NCc3c(Br)sc4c3CCNC4)c(C(=O)OC(C)(C)C)c21 (centres unmarked) [Compound 290]	< 100	–
CC1CCCc2sc(NC(=O)NCc3c(-n4cccc4)sc4c3CCN(C)C4)c(C(=O)OC(C)(C)C)c21 (centres unmarked) [Compound 291]	< 100	–
CCN1CCc2c(sc(-n3cccc3)c2CNC(=O)Nc2sc3c(c2C(=O)OC(C)(C)C)C(C)CCC3)C1 (centres unmarked) [Compound 292]	< 100	–
CC1Cc2c(sc(NC(=O)NCc3c(-n4cccc4)sc4c3CCN(C)C4)c2C(=O)OC(C)(C)C)C(C)C1 (centres unmarked) [Compound 293]	< 100	–
CCN1CCc2c(sc(-n3cccc3)c2CNC(=O)Nc2sc3c(c2C(=O)OC(C)(C)C)CC(C)CC3C)C1 (centres unmarked) [Compound 294]	< 100	–
Cc1sc(NC(=O)NCc2c(C(F)(F)F)sc3c2CCN(C)C3)c(C(=O)OC(C)C)c1C [Compound 295]	< 100	–
CCN1CCc2c(sc(C(F)(F)F)c2CNC(=O)Nc2sc(C)c(C)c2C(=O)OC(C)C)C1 [Compound 296]	< 100	–
Cc1sc(NC(=O)NCc2c(Br)sc3c2CCN(C)C3)c(C(=O)OC(C)C)c1C [Compound 297]	< 100	–
CN1CCc2c(sc(-n3cccc3)c2CNC(=O)Nc2sc3c(c2C(=O)OC(C)(C)C)CCC3)C1 [Compound 298]	< 100	–
CN1CCc2c(sc(Br)c2CNC(=O)Nc2sc3c(c2C(=O)OC(C)(C)C)CCC3)C1 [Compound 299]	< 100	–
CCN1CCc2c(sc(Br)c2CNC(=O)Nc2sc3c(c2C(=O)OC(C)(C)C)CCC3)C1 [Compound 300]	< 100	–
CN1CCc2c(sc(-n3cccc3)c2CNC(=O)Nc2sc3c(c2C(=O)OC(C)(C)C)CCCCC3)C1 [Compound 301]	< 100	–
CC(C)(C)OC(=O)c1c(NC(=O)NCc2c(-n3cccc3)sc3c2CCNC3)sc2c1CCCCC2 [Compound 302]	< 100	–
CCN1CCc2c(sc(C(F)(F)F)c2CNC(=O)Nc2sc3c(c2C(=O)OC(C)(C)C)CCCCC3)C1 [Compound 303]	< 100	–
Cc1noc(-c2c(NC(=O)NCc3c(-n4cccc4)sc4c3CCNC4)sc3c2CCCC3)n1 [Compound 304]	100 to 1000	–
CCOC(=O)c1c(NC(=O)NCc2c(C(F)(F)F)sc3c2CCN(C(=O)CN)C3)sc2c1CCCC2 [Compound 305]	< 100	–
CC(C)(C)OC(=O)c1c(NC(=O)NCc2c(-c3ccc(Cl)nc3)sc3c2CCNC3)sc2c1CCCC2 [Compound 307]	< 100	–
CC(C)(C)OC(=O)c1c(NC(=O)NCc2c(-c3ccnc(Cl)c3)sc3c2CCNC3)sc2c1CCCC2 [Compound 308]	< 100	–
CC(C)(C)OC(=O)c1c(NC(=O)NCc2c(-c3ccc(F)nc3)sc3c2CCNC3)sc2c1CCCC2 [Compound 309]	< 100	–
CC(C)(C)OC(=O)c1c(NC(=O)NCc2c(-c3ccnc(F)c3)sc3c2CCNC3)sc2c1CCCC2 [Compound 310]	< 100	–

SMILES	EC50 [1] [nM]	EC50 (Anti-HCVcc genotype 1/2 activity, Huh-7.5 cells, 72 h post infection, nano-luciferase) [nM]
CC(C)(C)OC(=O)c1c(NC(=O)NCc2c(C(F)(F)F)sc3c2CCNC3)sc2c1CCC1(C2)OCCO1 [Compound 311]	< 100	–
CCc1sc2c(c1CNC(=O)Nc1sc3c(c1C(=O)OC(C)(C)C)CCCCC3)CCNC2 [Compound 312]	< 100	–
CCc1sc2c(c1CNC(=O)Nc1sc3c(c1C(=O)OC1CCCC1)CCCC3)CCNC2 [Compound 313]	< 100	–
CCc1sc2c(c1CNC(=O)Nc1sc3c(c1C(=O)OC(C)(C)C)CCC3)CCNC2 [Compound 314]	< 100	–
CCOC(=O)c1c(NC(=O)NCc2c(C(F)(F)F)sc3c2CCN(C(=O)C(C)N)C3)sc2c1CCCC2 (centres unmarked) [Compound 315]	< 100	–
CCOC(=O)c1c(NC(=O)NCc2c(C(F)(F)F)sc3c2CCN(CCN(C)C)C3)sc2c1CCCC2 [Compound 316]	< 100	–
CCc1sc(NC(=O)NCc2c(-n3cccc3)sc3c2CCNC3)c(C(=O)OC(C)(C)C)c1C [Compound 318]	100 to 1000	–
CC(C)(C)OC(=O)c1c(NC(=O)NCc2c(-n3cccc3)sc3c2CCNC3)sc2c1CCOC2 [Compound 319]	< 100	–
CC(C)(C)OC(=O)c1c(NC(=O)NCc2c(C(F)(F)F)sc3c2CCNC3)sc2c1CCOC2O (centres unmarked) [Compound 320]	< 100	–
CC(C)(C)OC(=O)c1c(NC(=O)NCc2c(-c3ccc(C(=O)O)cc3F)sc3c2CCNC3)sc2c1CCCC2 [Compound 321]	1000 to 10000	–
Cc1cncc(-c2sc3c(c2CNC(=O)Nc2sc4c(c2C(=O)OC(C)(C)C)CCCC4)CCNC3)c1 [Compound 322]	100 to 1000	–
CC(C)(C)OC(=O)c1c(NC(=O)NCc2c(-c3cnc(Sc4ccccc4)nc3)sc3c2CCNC3)sc2c1CCCC2 [Compound 323]	100 to 1000	–
C=CCN1CCc2c(sc(-n3cccc3)c2CNC(=O)Nc2sc3c(c2C(=O)OC(C)(C)C)CCCC3)C1 [Compound 324]	< 100	–
C#CCN1CCc2c(sc(-n3cccc3)c2CNC(=O)Nc2sc3c(c2C(=O)OC(C)(C)C)CCCC3)C1 [Compound 325]	< 100	–
O=C(NCc1c(C(F)(F)F)sc2c1CCNC2)Nc1sc2c(c1C(=O)OC1CCOC1)CCCC2 (centres unmarked) [Compound 326]	< 100	–
CCOC(=O)c1c(NC(=O)NCc2c(C(F)(F)F)sc3c2CCN(C(=O)[C@H](C)N)C3)sc2c1CCCC2 [Compound 327]	< 100	–
CCOC(=O)c1c(NC(=O)NCc2c(C(F)(F)F)sc3c2CCN(C(=O)[C@H](C)N)C3)sc2c1CCCC2 [Compound 328]	–	< 100
O=C(NCc1c(C(F)(F)F)sc2c1CCNC2)Nc1sc2c(c1C(=O)OCC(F)(F)F)CCCC2 [Compound 329]	< 100	–
O=C(NCc1c(C(F)(F)F)sc2c1CCNC2)Nc1sc2c(c1C(=O)OC1CCOCC1)CCCC2 [Compound 330]	< 100	–
CC(C)(C)OC(=O)c1c(NC(=O)NCc2c(-c3ccoc3)sc3c2CCNC3)sc2c1CCOC2 [Compound 331]	< 100	–
Cc1sc(NC(=O)NCc2c(-c3ccoc3)sc3c2CCNC3)c(C(=O)OC(C)(C)C)c1C [Compound 332]	< 100	–
CCc1sc2c(c1CNC(=O)Nc1sc3c(c1C(=O)OC(C)(C)C)CCOC3)CCNC2 [Compound 333]	< 100	–
CC(C)(C)OC(=O)c1c(NC(=O)NCc2c(-n3cccc3)sc3c2CCN(C2CC2)C3)sc2c1CCCC2 [Compound 334]	< 100	–
CC(C)(C)OC(=O)c1c(NC(=O)NCc2c(C(F)(F)F)sc3c2CCNC3)sc2c1CCOC2F (centres unmarked) [Compound 335]	< 100	–

SMILES	EC50 [1] [nM]	EC50 (Anti-HCVcc genotype 1/2 activity, Huh-7.5 cells, 72 h post infection, nano-luciferase) [nM]
O=C(NCc1c(C(F)(F)F)sc2c1CCNC2)Nc1sc2c(c1C(=O)OC1CCOC1)CCOC2 (centres unmarked) [Compound 336]	< 100	–
O=C(NCc1c(-c2ccoc2)sc2c1CCNC2)Nc1sc2c(c1C(=O)OC1CCOC1)CCOC2 (centres unmarked) [Compound 337]	< 100	–
CCOC(=O)c1c(NC(=O)NCc2c(-c3ccco3)sc3c2CCNC3)sc2c1CCCC2 [Compound 338]	< 100	–
CCOC(=O)c1c(NC(=O)NCc2c(-c3ccoc3)sc3c2CCNC3)sc2c1CCCC2 [Compound 339]	< 100	–
CC(C)(C)OC(=O)c1c(NC(=O)NCc2c(-c3ccco3)sc3c2CCNC3)sc2c1CCCC2 [Compound 340]	< 100	–
CCOC(=O)c1c(NC(=O)NCc2c(C(F)(F)F)sc3c2CCN(C(=N)N)C3)sc2c1CCCC2 [Compound 341]	< 100	–
O=C(NCc1c(-c2ccco2)sc2c1CCNC2)Nc1sc2c(c1C(=O)OC1CCOC1)CCCC2 (centres unmarked) [Compound 342]	< 100	–
CC(C)(C)OC(=O)c1ccsc1NC(=O)NCc1c(C(F)(F)F)sc2c1CCNC2 [Compound 343]	100 to 1000	–
O=C(NCc1c(-c2ccoc2)sc2c1CCNC2)Nc1sc2c(c1C(=O)OC1CCCC1)CCCC2 [Compound 344]	< 100	–
CCOC(=O)c1c(NC(=O)NCc2c(C(F)(F)F)sc3c2CCN(C(=O)[C@@H](N)C(C)C)C3)sc2c1CCCC2 [Compound 345]	< 100	–
Cc1cc(C(=O)OC(C)(C)C)c(NC(=O)NCc2c(C(F)(F)F)sc3c2CCNC3)s1 [Compound 347]	< 100	–
CCOC(=O)c1c(NC(=O)NCc2c(C(F)(F)F)sc3c2CCNC3)sc2ccccc12 [Compound 348]	< 100	–
CC(C)(C)OC(=O)c1c(NC(=O)NCc2c(C(F)(F)F)sc3c2CCNC3)sc2c1CCC(O)C2 (centres unmarked) [Compound 349]	< 100	–
Cc1sc(NC(=O)NCc2c(C(F)(F)F)sc3c2CCNC3)c(C(=O)OC2CCOC2)c1C (centres unmarked) [Compound 350]	< 100	–
Cc1sc(NC(=O)NCc2c(-n3c(C)ccc3C)sc3c2CCNC3)c(C(=O)OC(C)(C)C)c1C [Compound 352]	1000 to 10000	–
Cc1sc(NC(=O)NCc2c(-n3c(C)ccc3C)sc3c2CCNC3)c(C(=O)OC2CCOC2)c1C (centres unmarked) [Compound 353]	1000 to 10000	–
CCc1cc(C(=O)OC(C)(C)C)c(NC(=O)NCc2c(C(F)(F)F)sc3c2CCNC3)s1 [Compound 354]	< 100	–
CN(C)CCN1CCc2c(sc(C(F)(F)F)c2CNC(=O)Nc2sc3c(c2C(=O)OC(C)(C)C)CCCC3)C1 [Compound 355]	< 100	–
CCc1sc(NC(=O)NCc2c(C(F)(F)F)sc3c2CCN(CCN(C)C)C3)c(C(=O)OC(C)(C)C)c1C [Compound 356]	< 100	–
Cc1sc(NC(=O)NCc2c(-c3cccc(Cl)c3)sc3c2CCNC3)c(C(=O)OC2CCOC2)c1C (centres unmarked) [Compound 357]	100 to 1000	–
CN(C)CCN1CCc2c(sc(-c3cccc(Cl)c3)c2CNC(=O)Nc2sc3c(c2C(=O)OC(C)(C)C)CCCC3)C1 [Compound 358]	< 100	–
CN(C)CCN1CCc2c(sc(-c3cccc(F)c3)c2CNC(=O)Nc2sc3c(c2C(=O)OC(C)(C)C)CCCC3)C1 [Compound 359]	< 100	–
Cc1sc(NC(=O)C(=O)NCc2c(C(F)(F)F)sc3c2CCNC3)c(C(=O)OC(C)(C)C)c1C [Compound 360]	100 to 1000	–
